Experimental data: ChEMBL document CHEMBL4819150, “The structural simplification of lysergic acid as a natural lead for synthesizing novel anti-Alzheimer agents” (2021)
The source made the active and inactive calls. The rule behind the calls is not given here.

Legend:
PC-12 [1] = experiment: Neuroprotective activity against rat PC12 cells under glucose and oxygen-deprived condition assessed as increase in cell viability at 1 uM relative to control; assay type: functional, cell-based
PC-12 [2] = experiment: Neuroprotective activity against rat PC12 cells under glucose and oxygen-deprived condition assessed as fold increase in cell viability at 1 uM relative to DPZ; assay type: functional
SIM-A9 [3] = experiment: Neuroprotective activity against LPS-induced mouse SIM-A9 cells assessed as increase in cell viability at 1 uM relative to control; assay type: functional, cell-based
PC-12 [4] = experiment: […] activity in rat PC12 cells assessed as reduction in TCN-induced ER stress by measuring increase in cell viability at 1 uM relative to control; assay type: functional, cell-based
SIM-A9 [5] = experiment: Antiinflammatory activity in mouse microglial SIM-A9 cells assessed as reduction in LPS-stimulated nitric oxide release at 1 uM relative to control; assay type: functional, cell-based
PC-12 [6] = experiment: Neuroprotective activity against rat PC12 cells under glucose and oxygen-deprived condition assessed as increase in cell viability at 0.1 uM relative to control; assay type: functional, cell-based

SMILES | Activity (PC-12 [1]) | fold change (FC) (PC-12 [2]) | Activity (SIM-A9 [3]) | Activity (PC-12 [4]) | Activity (SIM-A9 [5]) | Activity (PC-12 [6])
O=[N+]([O-])C(Cc1c[nH]c2cccc(Br)c12)Cc1c[nH]c2cccc(Br)c12 | Active | 10 | inactive | inactive |  | 
CN(C)Cc1c[nH]c2cccc(Br)c12 | Active | 10 |  | Active | Active | 
CN(C)Cc1c[nH]c2cccc(/C=C/C(N)=O)c12 | Active | 10 | Active | Active | Active | 
COC(=O)/C=C/c1cccc2[nH]cc(CN(C)C)c12 | Active | 10 | Active | Active | Active | 
COC(=O)C[C@H]1c2cccc3[nH]cc(c23)C[C@@H]1[N+](=O)[O-] | Active | 10 |  | Active |  | 
COc1cc2c(cc1OC)C(=O)C(CC1CCN(Cc3ccccc3)CC1)C2 (stereo unspecified) | Active |  | Active | Active | Active | Active
COCc1c[nH]c2cccc(/C=C/C(=O)OC)c12 | Active | 10 | Active | Active | Active | 
